The source of these data is publication PMC7278776, “Multidrug Resistance Modulation Activity of Silybin Derivatives and Their Anti-Inflammatory Potential” (Antioxidants, 2020).

One assay has as its system IL-6. Put plainly: IL-6 release by LPS-induced macrophages (ELISA). Format: cell-based, mouse. Particulars: for IC50: Mus musculus, RAW264.7, RAW 264.7, LPS + compound 6 h, read-out: IL-6, concentration necessary to halve the release (IC50); for IL-6 (pg/mL): untreated LPS control 1148 ± 35. On the procedure: To determine the level of inflammatory cytokine IL-6, macrophages were cultivated with LPS (1 µg/mL) and the tested compounds (7–50 µM) for 6 h. After incubation, the plates were centrifuged (1000× g; 10 min, 4 °C) and then the medium was removed and frozen to −80 °C. Prior to the detection, the samples were diluted in ELISA diluent in a 1:10 ratio. Production of the cytokine was determined by uncoated ELISA performed according to the manufacturer’s instructions.

The target of a further assay is T1, human recombinant P-gp (Homo sapiens, UniProt P08183).
T1 construct: purchased Promega
Kind of assay: biochemical. On the procedure: The procedure and the dilution of the reagents were performed according to the manufacturer’s instructions. Briefly, the human recombinant P-gp-containing membrane (25 µg) was mixed in a 96-well plate with P-gp–Glo™ Assay buffer (control), verapamil (P-gp substrate, positive control, 0.2 mM), Na3VO4 (P-gp inhibitor, negative control, 0.1 mM), ATP standards (to construct the calibration curve, 0.375–3 mM) or samples (2.5 µL, in the concentration range 0.7–20 mM). After that, MgATP (5 mM) was added to total volume of 50 µL to each well to initiate the ATPase reaction. The plate was incubated for 1 h at 37 °C. Thereafter, the reaction was stopped by adding 50 µL of ATP detection reagent and incubated at room temperature for 20 min. The remaining non-metabolized ATP was detected as a luciferase-generated signal.
Using linear regression, the standard ATP curve was designed, and by subsequent interpolation of relative luminescence (RLU) of standards, the amount of ATP consumed in the samples was recalculated according to the manufacturer’s guidelines.

In the next assay the target is acetylcholinesterase (Homo sapiens, UniProt P22303). Kind of assay: Acetylcholinesterase activity, Ellman colorimetric method. Format: biochemical. The protocol: The activity of acetylcholinesterase was measured by the Ellman colorimetric method. A stock solution of acetylcholinesterase was prepared in PBS (0.057 U/mL), 100× diluted and stored in a freezer (−20 °C). Further, the solution of DTNB (5,5′-dithio-bis-2-nitrobenzoic acid, 50 µM) and ATC ([…], 50 µM) was prepared. […] Afterwards, 10 µL of DNTB and ATC solution was added, and the reaction was launched. After the addition of reagents, the absorbance at 412 nm was recorded for 10 min every minute.

Another assay deals with A2780/DOX. Kind of assay: Sensitization of the MDR cell line to doxorubicin. Format: cell-based, human.
For a further assay, the system named is ABCA5. Put plainly: ABCA5 mRNA expression (real-time PCR). Particulars: A2780/DOX. Format: cell-based, human. On the procedure:
(§1) The A2780/DOX cell line was seeded into 5 cm Petri dishes with DMEM medium at 1 × 10^5 cell/mL. After 24 h, the dishes were washed with PBS and new DMEM medium supplemented with doxorubicin (at concentration equal to IC25) and samples (10 µM) were added. After 48 h of treatment, the cells were washed with PBS and harvested using the standard trypsin-EDTA procedure. The harvested cells were centrifuged (3200× g; 10 min, 4 °C). The supernatant was discarded, and the pellets were washed with 1.5 mL of cooled PBS (5400× g; 10 min, 4 °C). The washing step was repeated with 1 mL of PBS and the cells were centrifuged again (10,000× g; 3 min, 4 °C). Afterwards, the pellets were resuspended in 1 mL of Trizol (Invitrogen, Carlsbad, CA, USA) and transferred into pre-cooled RNase-free microfuge tubes. The samples were stored at −80 °C.
(§2) A Quant-iT RiboGreen RNA Assay Kit (Invitrogen) was used to determine the RNA concentration using the Infinite M200 plate reader (Tecan, Männedor, Switzerland). The cDNA was prepared from 0.5 µg of total RNA using a RevertAid First Strand Synthesis cDNA Kit (MBI Fermentas, Vilnius, Lithuania). The amplification of the ubiquitin C gene fragment was used to determine the quality of cDNA.
(§3) The experiment was performed using the ViiA7 Real-Time polymerase chain reaction (PCR) System (Life Technologies, Camarillo, CA, USA) with a 384-well block. Before quantitative real-time PCR, the master mix was prepared by mixing 2 µL of 8 × diluted cDNA, 1.75 µL of RNase free water, 1 µL of 5 × HotFIREPol Probe quantitative PCR Mix Plus (Solis Biodyne, Tartu, Estonia) and 0.25 µL of specific 20 × TaqMan Gene Expression Assay (Life Technologies), giving 5 µL of final reaction volume. Cycling parameters were: initial hold at 50 °C for 2 min and denaturation at 95 °C for 10 min, followed by 45 cycles consisting of denaturation at 95 °C for 15 s and annealing/extension at 60 °C for 1 min. After each extension phase, the fluorescence values were acquired. Duplicate samples were used for measurement and samples with a standard deviation of duplicates > 1.0 cycle threshold (Ct) were re-analyzed. The real time PCR procedure was maintained according to MIQE (Minimum information for publication of quantitative real-time PCR experiments) guidelines. The software REST 2009 (Qiagen, Hilden, Germany) served to compare relative transcript levels of genes in the cell line.

The next assay concerns ABCB10. Put plainly: ABCB10 mRNA expression (real-time PCR). Particulars: A2780/DOX. It is filed as cell-based, human. The protocol: as §1, with “After 24 h, the dishes were washed with PBS and new DMEM medium supplemented with doxorubicin (at concentration equal to IC25) and samples (10 µM) were added.” left out
as §2, §3

A further assay deals with ABCE1. Kind of assay: ABCE1 mRNA expression (real-time PCR). Format: cell-based, human. Particulars: A2780/DOX, 10 µM, 48 h, without doxorubicin. On the procedure:
as §1, §2, §3
A general note: In qPCR the cycle at which signal appears reflects the starting amount.

A further assay concerns ABCG1. Put plainly: ABCG1 mRNA expression (real-time PCR). Particulars: A2780/DOX. Format: cell-based, human. On the procedure:
as §1, §2, §3

The next assay deals with ABCG4. Kind of assay: ABCG4 mRNA expression (real-time PCR). It is filed as cell-based, human. Particulars: A2780/DOX. The protocol:
as §1, with “After 24 h, the dishes were washed with PBS and new DMEM medium supplemented with doxorubicin (at concentration equal to IC25) and samples (10 µM) were added.” left out
as §2, §3

The next assay has as its system ABCC5. Put plainly: ABCC5 mRNA expression (real-time PCR). Format: cell-based, human. Particulars: A2780/DOX, 10 µM, 48 h, without doxorubicin.
[1] abbreviates: 10 µM combined with doxorubicin at IC25, 48 h.
Where [2] appears, read: 10 µM, 48 h, without doxorubicin.

Molecules are shown by their SMILES. Marks after values point to notes of the source that are not given here.

Sequence of acetylcholinesterase (P22303 32-614, species assumed): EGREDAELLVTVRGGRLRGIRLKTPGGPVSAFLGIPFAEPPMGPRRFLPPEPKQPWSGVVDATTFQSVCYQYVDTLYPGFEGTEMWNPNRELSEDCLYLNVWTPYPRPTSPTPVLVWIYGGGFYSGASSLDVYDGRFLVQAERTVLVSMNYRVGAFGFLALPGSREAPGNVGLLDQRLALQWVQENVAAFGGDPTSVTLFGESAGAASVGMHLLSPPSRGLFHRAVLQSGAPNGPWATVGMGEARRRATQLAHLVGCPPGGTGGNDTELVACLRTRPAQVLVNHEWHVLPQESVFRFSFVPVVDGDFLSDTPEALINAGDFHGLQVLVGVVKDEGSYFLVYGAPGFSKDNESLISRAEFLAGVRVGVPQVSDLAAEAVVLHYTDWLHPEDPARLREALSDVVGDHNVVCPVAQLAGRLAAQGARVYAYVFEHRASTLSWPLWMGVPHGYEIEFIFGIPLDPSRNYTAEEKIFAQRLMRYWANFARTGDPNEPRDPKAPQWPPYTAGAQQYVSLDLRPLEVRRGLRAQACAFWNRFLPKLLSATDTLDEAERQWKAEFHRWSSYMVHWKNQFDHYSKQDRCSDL
T1 sequence (P08183 whole entry): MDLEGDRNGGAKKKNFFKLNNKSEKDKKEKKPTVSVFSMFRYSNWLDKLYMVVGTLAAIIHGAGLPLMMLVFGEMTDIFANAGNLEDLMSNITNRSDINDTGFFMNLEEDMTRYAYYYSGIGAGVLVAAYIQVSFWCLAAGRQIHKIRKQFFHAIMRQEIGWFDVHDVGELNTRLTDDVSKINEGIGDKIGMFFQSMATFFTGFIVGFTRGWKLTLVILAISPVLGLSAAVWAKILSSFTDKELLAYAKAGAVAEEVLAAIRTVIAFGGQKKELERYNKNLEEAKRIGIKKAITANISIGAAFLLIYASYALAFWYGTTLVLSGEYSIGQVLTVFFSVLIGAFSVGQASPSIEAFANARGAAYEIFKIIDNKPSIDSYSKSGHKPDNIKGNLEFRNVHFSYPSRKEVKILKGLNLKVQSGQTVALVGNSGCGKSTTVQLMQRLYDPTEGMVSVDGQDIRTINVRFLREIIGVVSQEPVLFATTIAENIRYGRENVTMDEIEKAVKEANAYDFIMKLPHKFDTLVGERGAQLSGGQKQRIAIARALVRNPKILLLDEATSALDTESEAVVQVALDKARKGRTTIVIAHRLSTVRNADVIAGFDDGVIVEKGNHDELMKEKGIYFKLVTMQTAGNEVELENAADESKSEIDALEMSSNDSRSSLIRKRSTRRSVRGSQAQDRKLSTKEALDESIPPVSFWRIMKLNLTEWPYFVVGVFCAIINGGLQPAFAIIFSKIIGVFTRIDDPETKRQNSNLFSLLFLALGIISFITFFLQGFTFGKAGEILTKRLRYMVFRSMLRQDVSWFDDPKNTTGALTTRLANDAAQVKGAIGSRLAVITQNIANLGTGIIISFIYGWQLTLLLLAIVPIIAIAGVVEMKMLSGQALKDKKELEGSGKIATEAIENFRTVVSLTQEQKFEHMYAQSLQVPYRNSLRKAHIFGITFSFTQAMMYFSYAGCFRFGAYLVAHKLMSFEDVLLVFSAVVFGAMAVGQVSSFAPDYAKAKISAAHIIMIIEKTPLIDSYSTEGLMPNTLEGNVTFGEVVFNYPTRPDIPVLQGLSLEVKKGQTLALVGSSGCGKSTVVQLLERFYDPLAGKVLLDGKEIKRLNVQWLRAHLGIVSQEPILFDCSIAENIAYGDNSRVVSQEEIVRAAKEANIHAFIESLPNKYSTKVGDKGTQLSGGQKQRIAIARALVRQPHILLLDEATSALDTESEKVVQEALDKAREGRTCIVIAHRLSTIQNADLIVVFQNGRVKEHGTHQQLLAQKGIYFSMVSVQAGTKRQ
Description for A2780/DOX: A multidrug resistant ovarian sub-line resistant to doxorubicin (A2780/DOX, Sigma-Aldrich) was cultivated in DMEM medium with 10% FBS and 1 × antibiotic antimycotic solution. Every other passage, doxorubicin at the final concentration of 0.1 µM was added to the culture medium to maintain the resistance of the cell line. To perform experiments, the cells were seeded at 1 × 10^5 cell/mL into the wells of a 96-well plate and incubated for 24 h. Afterwards, the cells were washed with PBS and fresh DMEM medium with tested compounds at 10, 20 and 30 µM were added to each well, except for the control wells. Subsequently, the cells were exposed to increasing concentrations of doxorubicin (0.6–20 µM) for 72 h. After incubation, the resazurin assay was performed as described above. The IC50 of doxorubicin was calculated for both the control and the samples and the fold change was counted up. […] The fold change lower than 1 means an antagonistic effect. (1) FOLD CHANGE=IC50 value of DOX cells treated with chemotherapeutic /IC50 value of DOX cells treated with chemotherapeutic and compound

Consider `COc1cc(C2Oc3cc([C@H]4Oc5cc(O)cc(O)c5C(=O)[C@@H]4O)ccc3OC2CO)ccc1O` (some centres unmarked) [Silybin AB, silybin], for which the IC50 with IL-6 was found to be 4.8 ± 0.3 µM; at human recombinant P-gp it was 32.6 ± 3.6 µM; on acetylcholinesterase, 22.6 ± 1.4 µM. Besides, the “IL-6 (pg/mL)” value is 311 ± 18 ^a pg/mL in the assay on IL-6 (compound 7 µM), 173 ± 5 ^b pg/mL in the assay with IL-6 (compound 15 µM) and 83 ± 4 ^b pg/mL in the assay on IL-6 (compound 50 µM). Besides, the “Doxorubicin-sensitization rate (ratio of IC50 of doxorubicin and doxorubicin + tested compound)” value in the assay on A2780/DOX (compound 10 µM) is reported as “(1.4 ± 0.1) ×”; in the assay on A2780/DOX (compound 20 µM), “(1.6 ± 0.1) ×”; with A2780/DOX (compound 30 µM), “(1.7 ± 0.1) ×”; with A2780/DOX (compound 50 µM) it was “(7.7 ± 0.4) ×”; in the assay on A2780/DOX (compound 50 µM, listed as silybin AB), around 10 ×. For the same molecule, the “ABCA5 Expression Difference” value in the assay with ABCA5 (setting [1]) is 2.122; with ABCA5 (setting [2]), 1.933. Moreover, the “ABCB10 Expression Difference” value came out at 1.069 in the assay with ABCB10 (setting [1]) and 2.204 in the assay on ABCB10 (setting [2]). In addition, the “ABCE1 Expression Difference” value in the assay with ABCE1 was found to be 1.558. Besides, the “ABCG1 Expression Difference” value with ABCG1 (setting [1]) was determined as 1.559; with ABCG1 (setting [2]), 2.416. The “ABCG4 Expression Difference” value was 5.289 in the assay with ABCG4 (setting [1]) and 1.846 in the assay with ABCG4 (setting [2]). Besides, the “ABCC5 Expression Difference” value in the assay on ABCC5 is recorded as 1.819.

`COc1cc([C@@H]2Oc3cc([C@H]4Oc5cc(O)cc(O)c5C(=O)[C@@H]4O)ccc3O[C@H]2CO)ccc1O` [Silybin B, silybin B]: the IC50 in the assay on IL-6 worked out at 5.2 ± 0.2 µM; at human recombinant P-gp, 51.9 ± 2.1 µM; against acetylcholinesterase it was 83.7 ± 6.4 µM. For the same molecule, the “IL-6 (pg/mL)” value in the assay with IL-6 (compound 7 µM) is given as 297 ± 23 ^a pg/mL; in the assay on IL-6 (compound 15 µM) it was 166 ± 6 ^b pg/mL; in the assay on IL-6 (compound 50 µM), 37 ± 2 ^a pg/mL. Also, the “Doxorubicin-sensitization rate (ratio of IC50 of doxorubicin and doxorubicin + tested compound)” value with A2780/DOX (compound 10 µM) was “(1.4 ± 0.1) ×”; in the assay with A2780/DOX (compound 20 µM), “(1.5 ± 0.2) ×”; in the assay on A2780/DOX (compound 30 µM), “(1.8 ± 0.1) ×”; with A2780/DOX (compound 50 µM) it was “(3.3 ± 0.4) ×”. Also, the “ABCA5 Expression Difference” value in the assay with ABCA5 (setting [1]) turned out to be 1.821; in the assay on ABCA5 (setting [2]), 0.356. In addition, the “ABCA5 Treated vs. Untreated” value in the assay with ABCA5 (setting [2]) is “DOWN”. Also, the “ABCB10 Expression Difference” value with ABCB10 (setting [1]) came out at 0.835; in the assay with ABCB10 (setting [2]), 0.329. The “ABCB10 Treated vs. Untreated” value in the assay on ABCB10 (setting [1]) and in the assay with ABCB10 (setting [2]) was “DOWN” throughout. The “ABCE1 Expression Difference” value in the assay with ABCE1 stood at 0.391. Besides, the “ABCE1 Treated vs. Untreated” value with ABCE1 was “DOWN”. For the same molecule, the “ABCG1 Expression Difference” value in the assay on ABCG1 (setting [2]) was 0.303. Besides, the “ABCG1 Treated vs. Untreated” value in the assay with ABCG1 (setting [2]) is reported as “DOWN”. Moreover, the “ABCG4 Expression Difference” value turned out to be 4.110 with ABCG4 (setting [1]) and 0.366 with ABCG4 (setting [2]). For the same molecule, in the assay with ABCG4 (setting [2]), the “ABCG4 Treated vs. Untreated” value is on record as “DOWN”. Moreover, in the assay with ABCC5, the “ABCC5 Expression Difference” value is recorded as 0.365. Moreover, the “ABCC5 Treated vs. Untreated” value in the assay on ABCC5 is recorded as “DOWN”.
